Values of other authors as cited in US20050089572A1, “Controlled release drug delivery system of pravastatin” (priority 2002, published 2005).

Settings: pH 3 or less as found in the stomach; degrades to lactone and 3-α-hydroxy-isopravastatin

CC[C@H](C)C(=O)O[C@H]1C[C@H](O)C=C2C=C[C@H](C)[C@H](CC[C@@H](O)C[C@@H](O)CC(=O)O)[C@H]21 [Pravastatin sodium, (+)-(3R, 5R)-3,5-dihydroxy-7-[(1S,2S,6S,8S,8aR)-6-hydroxy-2-methyl-8-[(S)-2-methylbutyryloxy]-1,2,6,7,8,8a-hexahydro-1-naphthyl] heptanoate]
stability at low pH: very unstable
